Source: EP4227307A1 (Genzyme Corporation, priority 2022, dated 2023)
Counter-ions that a name gives are not always drawn.

Biological target: T1, human recombinant 6His-Nterm SHP2 full-length (Thr2-Arg593) (Homo sapiens, UniProt Q06124)
T1 construct: 6His-Nterm SHP2 full-length (Thr2-Arg593, R&D system); 6His (N); purchased R&D system
T1 sequence (Q06124 2-593): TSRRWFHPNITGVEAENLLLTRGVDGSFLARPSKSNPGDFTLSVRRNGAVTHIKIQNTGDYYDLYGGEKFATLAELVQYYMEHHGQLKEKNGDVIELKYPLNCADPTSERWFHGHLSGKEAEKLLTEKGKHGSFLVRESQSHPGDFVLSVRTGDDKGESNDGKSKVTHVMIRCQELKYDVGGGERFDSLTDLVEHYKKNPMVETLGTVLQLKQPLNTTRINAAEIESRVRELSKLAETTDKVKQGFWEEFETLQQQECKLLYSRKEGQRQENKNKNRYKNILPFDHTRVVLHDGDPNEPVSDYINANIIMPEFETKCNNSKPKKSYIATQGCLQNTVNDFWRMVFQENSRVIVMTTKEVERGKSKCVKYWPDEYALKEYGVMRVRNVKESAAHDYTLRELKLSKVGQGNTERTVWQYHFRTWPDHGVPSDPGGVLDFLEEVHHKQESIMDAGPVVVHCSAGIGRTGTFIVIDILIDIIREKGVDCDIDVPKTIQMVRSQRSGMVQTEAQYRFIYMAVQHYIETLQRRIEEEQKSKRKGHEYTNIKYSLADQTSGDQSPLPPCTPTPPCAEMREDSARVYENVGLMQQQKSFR
Test: SHP2 Phosphatase Assay (DiFMUP fluorescence)
Assay type: biochemical
Details: SHP2 0.2 nM pre-incubated with 100 nM bi-phosphorylated activating peptide; compound 1000-0.05 nM, 30 min pre-incubation; DiFMUP 20 µM, 45 min, room temperature; 10-concentration dose-response
How it was run: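 SHP2 (0.2 nM) preactivated ≥10 min with 100 nM bis-phosphorylated peptide, then 30 min with compound (10 concentrations, 1000–0.05 nM) at room temperature, pH 7.2 HEPES buffer with DTT. DiFMUP (20 µM, added solution) reacted 45 min, pervanadate-stopped; fluorescence 350/450 nm. IC50 by 4-parameter logistic fit.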

IC50 | SMILES
31 nM | Cc1nc(N2CCC3(CC2)Cc2ncccc2[C@H]3N)c2ccnn2c1-c1ccc(C#N)s1 [Compound 190, 5-[6-methyl-4-[(5S)-5-aminospiro[5,7-dihydrocyclopenta[b]pyridine-6,4'-piperidine]-1'-yl]pyrazolo[1,5-a]pyrazin-7-yl]thiophene-2-carbonitrile]
5 nM | COc1nc2c(s1)[C@@H](N)C1(CCN(c3nc(C)c(-c4ccnc(C)c4Cl)n4nccc34)CC1)C2 [Compound 219, (6S)-1'-[7-(3-chloro-2-methyl-4-pyridyl)-6-methyl-pyrazolo[1,5-a]pyrazin-4-yl]-2-methoxy-spiro[4,6-dihydrocyclopenta[d]thiazole-5,4'-piperidine]-6-amine]
11 nM | Cc1nc(N2CCC3(CC2)Cc2ncccc2[C@H]3N)c2ccnn2c1-c1ccc2ccn(C)c2c1 [Compound 184, (5S)-1'-[6-methyl-7-(1-methylindol-6-yl)pyrazolo[1,5-a]pyrazin-4-yl]spiro[5,7-dihydrocyclopenta[b]pyridine-6,4'-piperidine]-5-amine]
42 nM | Cc1nc(N2CCC3(CC2)Oc2ncccc2[C@H]3N)c2ccnn2c1-c1ccc(F)c2cc[nH]c12 [Compound 16, (3R)-1'-[7-(4-fluoro-1H-indol-7-yl)-6-methyl-pyrazolo[1,5-a]pyrazin-4-yl]spiro[3H-furo[2,3-b]pyridine-2,4'-piperidine]-3-amine]
16 nM | Cc1nc(N2CCC3(CC2)Cc2ncccc2[C@H]3N)c2ccnn2c1-c1cccc(CO)c1 [Compound 191, [3-[6-methyl-4-[(5S)-5-aminospiro [5,7-dihydrocyclopenta[b]pyridine-6,4'-piperidine]-1'-yl]pyrazolo[1,5-a]pyrazin-7-yl]phenyl]methanol]
17 nM | Cc1nc(N2CCC3(CC2)Cc2ccccc2[C@H]3N)c2ccnn2c1-c1cnn(C)c1C [Compound 149, (1S)-1'-[7-(1,5-dimethylpyrazol-4-yl)-6-methyl-pyrazolo[1,5-a]pyrazin-4-yl]spiro[indane-2,4'-piperidine]-1-amine]
7 nM | COc1ccc(-c2c(C)nc(N3CCC4(CC3)Cc3ncccc3[C@H]4N)c3ccnn23)c(F)c1 [Compound 185, (5S)-1'-[7-(2-fluoro-4-methoxy-phenyl)-6-methyl-pyrazolo[1,5-a]pyrazin-4-yl]spiro[5,7-dihydrocyclopenta[b]pyridine-6,4'-piperidine]-5-amine]
7 nM | Cc1cccc(-c2c(C)nc(N3CCC4(CC3)Cc3ncccc3[C@H]4N)c3ccnn23)c1C [Compound 164, (5S)-1'-[7-(2,3-dimethylphenyl)-6-methyl-pyrazolo[1,5-a]pyrazin-4-yl]spiro[5,7-dihydrocyclopenta[b]pyridine-6,4'-piperidine]-5-amine]
15 nM | Cc1nc(N2CCC3(CC2)Cc2ncccc2[C@H]3N)c2ccnn2c1Sc1cccnc1C(F)(F)F [Compound 230, (5S)-1'-(6-methyl-7-((2-(trifluoromethyl)pyridin-3-yl)thio)pyrazolo[1,5-a]pyrazin-4-yl)-5,7-dihydrospiro[cyclopenta[b]pyridine-6,4'-piperidin]-5-amine]
8 nM | Cc1nccc(-c2c(C)nc(N3CCC4(CC3)Cc3ncccc3[C@H]4N)c3ccnn23)c1Cl [Compound 45, (5S)-1'-[7-(3-cldoro-2-methyl-4-pyridyl)-6-methyl-pyrazolo[1,5-a]pyrazin-4-yl]spiro[5,7-dihydrocyclopenta[b]pyridine-6,4'-piperidine]-5-amine]
13 nM | Cc1nc(N2CCC3(CC2)Cc2nc(CO)ccc2[C@H]3N)c2ccnn2c1-c1ccccc1 [Compound 223, [(5S)-5-amino-1'-(6-methyl-7-phenyl-pyrazolo[1,5-a]pyrazin-4-yl)spiro[5,7-dihydrocyclopenta[b]pyridine-6,4'-piperidine]-2-yl]methanol]
11 nM | Cc1nc(N2CCC3(CC2)Cc2cc(CO)ncc2[C@H]3N)c2ccnn2c1-c1ccccc1F [Compound 59, [(7S)-7-amino-1'-[7-(2-fluorophenyl)-6-methyl-pyrazolo[1,5-a]pyrazin-4-yl]spiro[5,7-dihydrocyclopenta[c]pyridine-6,4'-piperidine]-3-yl]methanol]
5 nM | Cc1nc(N2CCC3(CC2)Cc2ncccc2[C@H]3N)c2ccnn2c1-c1ccccc1F [Compound 51, (5S)-1'-[7-(2-fluorophenyl)-6-methyl-pyrazolo[1,5-a]pyrazin-4-yl]spiro[5,7-dihydrocyclopenta[b]pyridine-6,4'-piperidine]-5-amine]

The remaining lines, values behind:

SMILES | IC50
Cc1nc(N2CCC3(CC2)Cc2c(F)cccc2[C@H]3N)c2ccnn2c1-c1ccccc1F [Compound 64, (1S)-4-Fluoro-1'-[7-(2-fluorophenyl)-6-methyl-pyrazolo[1,5-a]pyrazin-4-yl]spiro[indane-2,4'-piperidine]-1-amine hydrochloride] | 46 nM
Cc1nc(N2CCC3(CC2)Oc2ccccc2[C@H]3N)c2ccnn2c1-c1ccc(F)c2cc[nH]c12 [Compound 18, (3R)-1'-[7-(4-fluoro-1H-indol-7-yl)-6-methyl-pyrazolo[1,5-a]pyrazin-4-yl] spiro [3H-benzofuran-2,4'-piperidine] -3 - amine] | 132 nM
COc1cc(-c2c(C)nc(N3CCC4(CC3)Cc3ncccc3[C@H]4N)c3ccnn23)c(F)cn1 [Compound 76, (5S)-1'-[7-(5-fluoro-2-methoxy-4-pyridyl)-6-methyl-pyrazolo [1,5-a]pyrazin-4-yl]spiro[5,7-dihydrocyclopenta[b]pyridine-6,4'-piperidine] -5-amine hydrochloride] | 72 nM
Cc1nc(N2CCC3(CC2)Nc2ccccc2[C@H]3N)c2ccnn2c1-c1ccccc1F [Compound 153, (3R)-1'-[7-(2-fluorophenyl)-6-methyl-pyrazolo[1,5-a]pyrazin-4-yl]spiro[indoline-2,4'-piperidine]-3-amine hydrochloride] | 15 nM
COc1ccc2c(c1)[C@@H](N)C1(CCN(c3nc(C)c(-c4cccc(F)c4Cl)n4nccc34)CC1)C2 [Compound 9, (1S)-1'-[7-(2-chloro-3-fluorophenyl)-6-methyl-pyrazolo[1,5-a]pyrazin-4-yl]-6-methoxy-spiro[indane-2,4'-piperidine]-1-amine hydrochloride] | 43 nM
Cc1nccc(-c2c(C)nc(N3CCC4(CC3)Nc3ccccc3[C@H]4N)c3ccnn23)c1Cl [Compound 154, (3R)-1'-[7-(3-chloro-2-methyl-4-pyridyl)-6-methyl-pyrazolo[1,5-a]pyrazin-4-yl]spiro[indoline-2,4'-piperidine]-3-amine hydrochloride] | 4 nM
Cc1nc(C)c(-c2c(C)nc(N3CCC4(CC3)Cc3ncccc3[C@H]4N)c3ccnn23)s1 [Compound 161, (5S)-1'-[7-(2,4-dimethylthiazol-5-yl)-6-methyl-pyrazolo[1,5-a]pyrazin-4-yl]spiro [5,7-dihydrocyclopenta[b]pyridine-6,4'-piperidine]-5-amine hydrochloride] | 29 nM
Cc1nc2c(s1)[C@@H](N)C1(CCN(c3nc(C)c(-c4ccc5nccnc5c4Cl)n4nccc34)CC1)C2 [Compound 81, (6S)-1'-[7-(5-chloroquinoxalin-6-yl)-6-methyl-pyrazolo[1,5-a]pyrazin-4-yl]-2-methyl-spiro [4,6-dihydrocyclopenta[d]thiazole-5,4'-piperidine]-6-amine hydrochloride] | 4 nM
Cc1nc(N2CCC3(CC2)Cc2scnc2[C@H]3N)c2ccnn2c1-c1cccc(F)c1F [Compound 65, (4S)-1'-[7-(2,3-difluorophenyl)-6-methyl-pyrazolo[1,5-a]pyrazin-4-yl]spiro[4,6-dihydrocyclopenta[d]thiazole-5,4'-piperidine]-4-amine hydrochloride] | 22 nM
Cc1c(-c2cnc(N3CCC4(CC3)Cc3ncccc3[C@H]4N)c3ccnn23)cnn1C [Compound 88, (5S)-1'-[7-(1,5-dimethylpyrazol-4-yl)pyrazolo [1,5-a]pyrazin-4-yl]spiro[5,7-dihydrocyclopenta[b]pyridine-6,4'-piperidine] -5-amine hydrochloride] | 346 nM
COc1cccc(-c2cnc(N3CCC4(CC3)Cc3ncccc3[C@H]4N)c3ccnn23)c1F [Compound 85, (5S)-1'-[7-(2-fluoro-3-methoxyphenyl)pyrazolo[1,5-a]pyrazin-4-yl]spiro[5,7-dihydrocyclopenta[b]pyridine-6,4'-piperidine] -5-amine hydrochloride] | 27 nM
Cc1nc(N2CCC3(CC2)Cc2ncccc2[C@H]3N)c2ccnn2c1-c1ccc2nccnc2c1 [Compound 27, (5S)-1'-(6-methyl-7-quinoxalin-6-yl-pyrazolo[1,5-a]pyrazin-4-yl)spiro[5,7-dihydrocyclopenta[b]pyridine-6,4'-piperidine]-5-amine hydrochloride] | 16 nM
